Measured values: patent publication US20210123061A1, “METHODS AND COMPOSITIONS FOR TREATING INFLAMMATORY DISEASE OR DISORDER” (THE BRIGHAM AND WOMEN'S HOSPITAL, INC., priority 2018, published 2021)

Tested on: RXXpS/T, RPS6-pSer235/236, PRAS40-pThr246
Test: Immunoblot of RXXpS/T motif, RPS6 and PRAS40 phosphorylation in macrophages
Assay type: cell-based, human
Description: FIGS. 6A-6C show phospho-proteomics identified RSK substrates in human PBMC-derived macrophages. (FIG. 6A) Scheme of phospho-proteomics. Human PBMC-derived macrophages were treated with DMSO or BI-D1870 for two hours followed by IFN-γ stimulation for subsequent proteolysis and phospho-peptide enrichment using the anti-RXXpS/T antibody strategy. (FIG. 6B) Cell lysates were subjected to immunoblot analysis with anti-RPS6-pSer235/236, anti-RPS6, anti-PRAS40-pThr246, anti-PRAS40, or anti-Tubulin. N=2 donors. […] The average shortest distance of the same number of randomly selected genes to disease genes was calculated for N=250 realizations in order to compare the average shortest distance value to random expectation. Empirical p-values were calculated based on 100 degree-preserved randomizations of the first neighbor networks.
FIGS. 15A-15C show RXXpS/T pattern in human IFN-γ-stimulated macrophages. (FIG. 15A) Human PBBMC-derived macrophages were treated with DMSO or 10 μM BI-D1870 for 2 hours followed by stimulation with IFN-γ for 1 hour. Cell lysates were subjected to immunoblot analysis with anti-RXXpS/T antibody. (FIG. 15B) Four ellipse Venn diagram showing numbers of detected phospho-peptides in each sample. (FIG. 15C) A flow chart of screening for RSK-substrates in human macrophages. We identified 24 candidates including RPS6 and AKT1S1/PRAS40 as RSK-substrates. […]

## CC(C)CCN1c2nc(Nc3cc(F)c(O)c(F)c3)ncc2N(C)C(=O)C1C (centres unmarked) [BI-D1870]
10 μM for 2 hours, then IFN-γ 1 hour
  anti-RXXpS/T immunoblot signal intensities: decrease in signal intensities
IFN-γ versus RSK-inhibition, two donors
  RPS6-pSer235/236 and PRAS40-pThr246 immunoblot: confirming the changes
